Experimental data published in US10485844B2, “Methods for treating severe atopic dermatitis by administering an IL-4R inhibitor” (Regeneron Pharmaceuticals, Inc., priority 2016, dated 2019).
Marks after values point to notes of the source that are not given here.

Tested on: adult patients with severe AD
Experiment: 16-week randomized placebo-controlled trial of dupilumab + TCS in adults with severe AD not adequately controlled with or intolerant to cyclosporine A (efficacy and safety);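 also: subcutaneous dosing after a 600 mg loading dose on day 1, with standardized medium-potency TCS background from day −14, compared against matching injectable placebo arm, 1:1:1 randomization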
Settings: for % change from baseline in SCORAD / % change in baseline in weekly average of peak daily pruritus NRS / % patients with EASI-75 / % patients with IGA 0 or 1 and reduction from baseline of ≥2 points / Change from baseline in % BSA / Change from baseline in DLQI / Change from baseline in HADS / Change from baseline in POEM / % patients with EASI-75 for patients with prior CSA use / % patients with reduction of weekly average peak daily pruritus NRS ≥4 from baseline: week 16; for % patients with EASI-75 for patients with prior CSA use: N = 69; for % patients with reduction of weekly average peak daily pruritus NRS ≥4 from baseline: N = 94
[1] = 300 mg dupilumab q2w + TCS, Week 16
[2] = expected at the end of the study period

Substance: dupilumab: fully human anti-IL-4R antibody; heavy chain SEQ ID NO: 9, light chain SEQ ID NO: 10
- Rhinitis allergic, n (%) (300 mg dupilumab q2w + TCS (N = 107), 16-week treatment period): (6.5) %
- DLQI: Proportion of patients reporting “no impact” or “little impact”: Affected social, leisure activity [1]: (91.6)*** %
- DLQI: Proportion of patients reporting “no impact” or “little impact”: Caused any sexual difficulties [1]: (93.5)*** %
- DLQI: Proportion of patients reporting “no impact” or “little impact”: How embarrassed, self-conscious [1]: (86.9)*** %
- DLQI: Proportion of patients reporting “no impact” or “little impact”: How itchy, sore, painful, stinging [1]: (83.2)*** %
- DLQI: Proportion of patients reporting “no impact” or “little impact”: How much a problem is treatment [1]: (89.7)*** %
- DLQI: Proportion of patients reporting “no impact” or “little impact”: Influenced clothes you wear [1]: (84.1)*** %
- DLQI: Proportion of patients reporting “no impact” or “little impact”: Interfered shopping, home, yard [1]: (93.5)*** %
- DLQI: Proportion of patients reporting “no impact” or “little impact”: Made it difficult to do any sports [1]: (90.7)*** %
- DLQI: Proportion of patients reporting “no impact” or “little impact”: Prevented/problem at working or studying [1]: (91.6)*** %
- DLQI: Proportion of patients reporting “no impact” or “little impact”: Problem partner, friends, relative [1]: (95.3)*** %
- POEM: Proportion of patients reporting ‘no days’ or ‘1-2 days’: Last week days been weeping/oozing [1]: (87.9)*** %
- POEM: Proportion of patients reporting ‘no days’ or ‘1-2 days’: Last week days skin been bleeding [1]: (84.1)*** %
- POEM: Proportion of patients reporting ‘no days’ or ‘1-2 days’: Last week days skin been cracked [1]: (75.7)*** %
- POEM: Proportion of patients reporting ‘no days’ or ‘1-2 days’: Last week days skin been flaking off [1]: (65.4)*** %
- POEM: Proportion of patients reporting ‘no days’ or ‘1-2 days’: Last week days skin been itchy [1]: (45.8)*** %
- POEM: Proportion of patients reporting ‘no days’ or ‘1-2 days’: Last week days skin felt dry or rough [1]: (59.8)*** %
- POEM: Proportion of patients reporting ‘no days’ or ‘1-2 days’: Last week nights sleep been disturbed [1]: (83.2)*** %
- SCORAD VAS sleep loss, LS mean percent change from baseline to Week 16 (±SE) (300 mg dupilumab q2w + TCS, n = 98): −61.2 (34.38)* percent
- SCORAD VAS sleep loss, LS mean change from baseline to Week 16 (±SE) (300 mg dupilumab q2w + TCS, n = 106): −3.0 (0.25)***^
- Pruritus NRS: Proportion of patients with ≥3-point improvement at Week 16 (300 mg dupilumab q2w + TCS, patients with baseline peak pruritus NRS ≥3): 56/99 (56.6)*** %
- Pruritus NRS: Proportion of patients with ≥4-point improvement at Week 16 (300 mg dupilumab q2w + TCS, patients with baseline peak pruritus NRS ≥4): 43/94 (45.7)*** %
- deaths during the study (all treatment groups): No deaths
- skin infections vs placebo (combined dupilumab-treated groups): fewer skin infections
- % change in EASI score from baseline to week 16 (dupilumab 300 mg q2w + TCS): −79.8%
- Mean weekly dose of TCS use during the treatment period (dupilumab 300 mg q2w + TCS): 15.0
- % change from baseline in SCORAD (dupilumab 300 mg q2w + TCS): −58.3%
- % change in baseline in weekly average of peak daily pruritus NRS (dupilumab 300 mg q2w + TCS): −53.9%
- % patients with EASI-75 (dupilumab 300 mg q2w + TCS): 62.6%
- % patients with IGA 0 or 1 and reduction from baseline of ≥2 points (dupilumab 300 mg q2w + TCS): 40.2%
- Change from baseline in % BSA (dupilumab 300 mg q2w + TCS): −39.2 % BSA
- Change from baseline in DLQI (dupilumab 300 mg q2w + TCS): −9.6
- Change from baseline in HADS (dupilumab 300 mg q2w + TCS): −6.1
- Change from baseline in POEM (dupilumab 300 mg q2w + TCS): −11.9
- % patients with EASI-75 for patients with prior CSA use (dupilumab 300 mg q2w + TCS): 58.0%
- % patients with reduction of weekly average peak daily pruritus NRS ≥4 from baseline (dupilumab 300 mg q2w + TCS): 45.7%
- % change in EASI score from baseline to week 16 (dupilumab 300 mg qw + TCS): −78.2%
- Mean weekly dose of TCS use during the treatment period (dupilumab 300 mg qw + TCS): 17.5
- % change from baseline in SCORAD (dupilumab 300 mg qw + TCS): −62.4%
- % change in baseline in weekly average of peak daily pruritus NRS (dupilumab 300 mg qw + TCS): −51.7%
- % patients with EASI-75 (dupilumab 300 mg qw + TCS): 59.1%
- % patients with IGA 0 or 1 and reduction from baseline of ≥2 points (dupilumab 300 mg qw + TCS): 39.1%
- Change from baseline in % BSA (dupilumab 300 mg qw + TCS): −37.5 % BSA
- Change from baseline in DLQI (dupilumab 300 mg qw + TCS): −8.9
- Change from baseline in HADS (dupilumab 300 mg qw + TCS): −5.2
- Change from baseline in POEM (dupilumab 300 mg qw + TCS): −11.4
- % patients with EASI-75 for patients with prior CSA use (dupilumab 300 mg qw + TCS): 56.5%
- % patients with reduction of weekly average peak daily pruritus NRS ≥4 from baseline (dupilumab 300 mg qw + TCS): 40.4%
- Injection site reactions vs placebo (dupilumab groups, higher rate in 300 mg qw than 300 mg q2w, no severe ISRs): more common
- tolerability / safety profile (dupilumab plus concomitant TCS, 16-week treatment period): generally well tolerated
- incidence of conjunctivitis vs placebo (dupilumab-treated groups, more events in 300 mg Q2W than 300 mg QW): higher incidence
- improvement in at least one AD-associated parameter as compared to placebo [2]: significant improvement
- less TCS used than placebo [2]: up to 50%
- Serious adverse events (in each treatment group): 2 events
